The source of these data is patent publication US20170027902A1, “Use of a Composition Comprising a Flavonol, A Flavonoid, and a Fatty Acid in the Treatment of Oxidative Injuries Due to Mitochondrial Dysfunction” (priority 2014, published 2017).

This data set concerns cortical neurons. In words: OGD, viable neurons counted by FACS (Annexin V / 7AAD). The class given is cell-based, mouse. The note with it: 0.03 and 0.1 μg/ml (0.1 and 0.3 μM); 24 hrs pretreatment; 90 min OGD (vehicle approximately 45%). Here is the method: Embryonic day 16 timed pregnant CD1 out-bred mice were obtained from Charles River Laboratories (Charles River; QC, Canada). Primary cortical neuron cultures were prepared from cerebral cortices of wild type (WT) CD1 mouse embryos as described previously, with the following modifications. Pregnant CD1 females were heavily anaesthetized with isoflurane vapor (Benson Medical Industries, Inc., Markham, ON) before being euthanized by decapitation. The embryonic day 16 (E16) fetuses were immediately removed from the sacrificed pregnant females by cesarean section and placed in ice-cold Hank's Balanced Salt Solution (HBSS) (GIBCO; Invitrogen, Amarillo, Calif.). The meninges were removed from the brains and cortices were isolated under a dissecting microscope. […] The trypsin and inhibitor solutions were discarded and each cell pellet was suspended in 1 ml of cortical neuron plating medium (Neurobasal medium (Invitrogen, Amarillo, Calif.) with 10% fetal bovine serum (GIBCO; Invitrogen; Amarillo, Calif.), 2% B27 supplement, 1 mM L-glutamine, and 1% Gentamycin (Invitrogen; Amarillo, Calif.), triturated 10 times and counted using trypan blue exclusion and a hemocytometer. Cortical neurons were plated in 96-well plates (Corning; Lowell, Mass.) that were pre-coated with poly-D-lysine (PDL; Sigma-Aldrich; Oakville, ON) according to the procedure described by the manufacturer. […]
On the technique in general: A flow cytometer gives signals particle by particle.

For the compound `O=c1c(O)c(-c2ccc(O)c(O)c2)oc2cc(O)cc(O)c12` [Q], the “neuronal survival (viable neurons relative to control, no OGD)” value was 55%. Turning to `Oc1cc(O)c2c(c1)O[C@H](c1ccc(O)c(O)c1)[C@H](O)C2` [E, (2R,3R)-2-(3,4-dihydroxyphenyl)-3,4-dihydro-2H-chromene-3,5,7-triol], the “neuronal survival (viable neurons relative to control, no OGD)” value turned out to be 55%.
